The subject of one data set is Candida albicans. Particulars: oral, 350-700 mg/kg; Mirska et al. 1972; cited from earlier work.
The subject of another data set is human. The note with it: may cause harmful or lethal effect on human in case of being dosed excessively; cited from earlier work.
The test system of data set [1] is fungi, such as Alternaria sp., Aspergillus flavus, Aspergdlus fumigatus, Candida albicans, Curvularia sp., Drechslera sp., Fusarium sp., Mucor sp., Penicillium …. Particulars: Mahajan et al. 1982; cited from earlier work.
The test system of the next data set is fungal infection of foot. Description: 0.5% creamy formulation applied on male patients with fungal infection of foot. Particulars: 0.5% cream once a day for five days. It counts as in vivo, human (male patients). From the text: The above 0.5% creamy formulation of the compound No. 62 was applied on infected area of 10 male patients with fungal infection of foot, in a proper amount once a day for five days.

Another data set relates to Epidermophyton floccosum. The data set is described as follows: Antifungal efficacy of creamy formulation against local fungal skin infection. It counts as in vivo, mouse (SKH/1, hairless, male). The note with it: 0.5% cream, topical. As for the experimental part: Specific pathogen free SKH/1 male mouse(Hairless) of which weight is 30-35 g and age is 5 weeks, was reared with sterilized water and feed for 12 night/day in the condition of 21-23° C. and of 50% relative humidity. Five mice were allocated by each group. After skin infection, each mouse was taken in separate cage. The strain of microorganism for infection(Epidermophyton floccosum) was cultivated on a flat medium of SDA(Sabouraud Dextrose Agar) for 5-7 days and after confirmation of macrocomidia, 3 ml of RPMI (Rosewell Park Memorial Institute) 1640 media per each flat medium was added thereto and then scraped well using loop to remove hyphae from media. The floating liquid was suspended briefly and then diluted with RPMI 1640 media to adjust the concentration of hyphae to 2×10^6 CFU/ml. Mouse was anesthetized and marked on back site(lumbosacral area) in a shape of circle of which diameter is 1.5 cm. Then, the inner part of marked skin was scratched with sand paper. The scratched part was covered with a filter paper to preserve inoculated microorganism for a long time and thereby stimulating the skin continuously. 0.2 ml of fungus solution of which concentration is adjusted as described above, was inoculated between the skin and filter paper. 5 Days after the inoculation, the filter paper was removed and the infection of skin was examined. The test formulations, 0.5% creamy formulations of the compounds Nos. 62 and 85, 1.0% creamy formulation of Terbinafine(Lamisile cream) and a placebo was applied on the infected areas in a same amount once a day for 5 days. The clinical evaluation on the change of the infected area in 5 days after the inoculation was performed and expressed numerically from 0 to 4. The daily change of the infected area was checked every day. The result of each group was compared with each other.
1: Mild erythema or small number of skin eruption
2: Well-demarcated erythema with scales or mild skin eruption of infected area
3: Wide area of marked skin eruption, scales, swelling or severe skin eruption with partial swelling and scales
4: The same as those of control, or severe skin eruption in entire lesion
The result was calculated as follows;
T: Average score of clinical evaluation in drug treated area
K: Average score of clinical evaluation in placebo control group
Moreover, the antifungal efficacies of the 0.5% creamy formulation of the compounds Nos. 29, 35, 60, 62, 63 and 85, and 1% creamy formulation of Terbinafme (Lamisil cream), which are measured by applying the above formulations on the skin infected with Epidermophyton floccosum of mouse which is the standard animal for the test of local fungal skin infection, i.e, Specific Pathogen Free SKH/1, are described in the following Table 4.

In the next data set the test system is C. krusei. Description: MIC. It counts as cell-based. Particulars: Pichia kudriavzevii; C. krusei; read-out: MIC.
Another data set has as its system C. albicans OY 019. Description: MIC. It counts as cell-based, Candida albicans. The note with it: Candida albicans, OY019; C. albicans OY 019; read-out: MIC.
In the next data set the test system is male ICR mice. Particulars: mouse, in vivo.
Another data set deals with C. parapsilosis. Description: MIC. It is filed as cell-based. The note with it: Lodderomyces parapsilosis; C. parapsilosis; read-out: MIC.
The test system of the next data set is C. albicans OY 003. The data set is described as follows: MIC. It counts as cell-based, Candida albicans. The note with it: Candida albicans, OY003; C. albicans OY 003; read-out: MIC.
A further data set deals with C. albicans ATCC 10231. The data set is described as follows: MIC. It is filed as cell-based. The note with it: Candida albicans, ATCC10231; C. albicans ATCC 10231; read-out: MIC.
The subject of another data set is C. albicans ATCC 11651. Description: MIC. Particulars: Candida albicans, ATCC11651; C. albicans ATCC 11651; read-out: MIC. It counts as cell-based, Candida albicans.
The next data set concerns C. glabrata. The data set is described as follows: MIC. It is filed as cell-based. Particulars: Nakaseomyces glabratus; C. glabrata; read-out: MIC.
Another data set can be described thus: acute oral toxicity. Particulars: rat, in vivo, po, rats. As for the experimental part: (§1) Meanwhile, the toxicity test of the compound of the present invention was performed using […]. The compound was suspended in propylene glycol. The resulting suspension was medicated respectively on 5 female rats and 5 male rats(SD) of which age are 5 weeks, via oral after 12 hour starvation. The general symtoms, weight change and lethal case of the above rats were investigated. In cases of tests of the compound Nos. 25, 62, 63 and 85 (delivery of 2,000 mg/kg), the general symtom and weight change were normal and the lethal case was not observed. […] The toxicity data on the compound Nos. 25, 62, 63 and 85 are described in the following Table 5. In light forgoings, the compounds of the present invention are safe in toxicity and have the excellent lethal effect and growth-inhibition effect against fungus.

Another data set concerns rats. The data set is described as follows: acute oral toxicity. The note with it: rat, in vivo. As for the experimental part:
as §1

Data set [2] concerns cultured lung cells derived from chinese hamster. It counts as cell-based.
For the next data set, the system named is C. albicans U.K. The data set is described as follows: MIC. It is filed as cell-based. Particulars: Candida albicans; C. albicans U.K.; read-out: MIC.
Another data set has as its system C. albicans ATCC 28838. Description: MIC. The note with it: Candida albicans, ATCC28838; C. albicans ATCC 28838; read-out: MIC. It counts as cell-based, Candida albicans.
In a further data set the test system is salmonella typhimurium. Description: bacterial reverse mutation test (Ames test). It counts as cell-based. (In the Ames test, an excess of revertant colonies over the control signals mutagenicity.)
The next data set relates to C. albicans KCTC 1940. Description: MIC. It is filed as cell-based, Candida albicans. The note with it: Candida albicans, KCTC1940; C. albicans KCTC 1940; read-out: MIC.
In the next data set the test system is C. glulliermendi. The data set is described as follows: MIC. It counts as cell-based. The note with it: C. glulliermendi; read-out: MIC.
Another data set concerns C. albicans IFO 1385. The data set is described as follows: MIC. It counts as cell-based, Candida albicans. The note with it: Candida albicans, IFO1385; C. albicans IFO 1385; read-out: MIC.
A further data set has as its system E. floccosum. The data set is described as follows: MIC. Particulars: Epidermophyton floccosum; E. floccosum; read-out: MIC. It counts as cell-based, Epidermophyton floccosum.

The structures appear in SMILES notation. Counter-ions that a name gives are not always drawn.

For the molecule `COc1ccc2cc3[n+](cc2c1OC)CCc1cc2c(cc1-3)OCO2` [berberine sulfate], the “effect in mice infected with Candida albicans” value with Candida albicans is “effective”. Also, the toxicity entry with human is on record as “exhibits intense toxicity”. Also, in [1], the “concentration inhibiting the growth of fungi” value is 10 to 25 mg/mL.

For orientation: MIC means the lowest concentration that inhibits growth of the organism. What is called LD50 is the dose expected to kill half of the subjects tested. Consider `COc1ccc2c(Cc3ccc(C(C)(C)C)cc3)c3[n+](cc2c1OC)CCc1cc2c(cc1-3)OCO2` [compound 62, 13-(4-t-butylbenzyl)berberine chloride], for which, in the data set with fungal infection of foot (in 8 of 10 male patients), the remedial effect result was “more than 98%”. In addition, the “patients exhibiting remedial effect more than 98%” value in the data set with fungal infection of foot (of 10 male patients) was found to be 8 Patients. In addition, in the data set on Epidermophyton floccosum (0 day later), the “Efficacy (%) 0 day later” value worked out at 0%. Further, in the data set on Epidermophyton floccosum (1 day later), the “Efficacy (%) 1 day later” value turned out to be 40.0%. The “Efficacy (%) 2 day later” value in the data set with Epidermophyton floccosum (2 day later) is 55.4%. Also, in the data set on Epidermophyton floccosum (3 day later), the “Efficacy (%) 3 day later” value is given as 69.4%. For the same molecule, the “Efficacy (%) 4 day later” value in the data set on Epidermophyton floccosum (4 day later) is listed as 72.6%. In the data set on Epidermophyton floccosum (5 day later), the “Efficacy (%) 5 day later” value is reported as 76.3%. In the data set with Epidermophyton floccosum (6 day later), the “Efficacy (%) 6 day later” value is reported as 79.2%. Also, the “Efficacy (%) 7 day later” value in the data set on Epidermophyton floccosum (7 day later) is 85.4%. In addition, the MIC was 3.12 µg/mL in the data set with C. krusei; 0.78 µg/mL in the data set with C. albicans OY 019; over 100 µg/mL with C. parapsilosis; 0.78 µg/mL with C. albicans OY 003; 6.25 µg/mL in the data set on C. albicans ATCC 10231; 0.78 µg/mL in the data set on C. albicans ATCC 11651. The MIC with C. glabrata was over 100 µg/mL; with C. albicans U.K., 6.25 µg/mL; with C. albicans ATCC 28838, 0.78 µg/mL; in the data set on C. albicans KCTC 1940, 0.78 µg/mL; in the data set with C. glulliermendi, 12.5 µg/mL; in the data set on C. albicans IFO 1385, 6.25 µg/mL. The MIC in the data set with E. floccosum came out at 12.5 µg/mL. Besides, the “nucleus test (micronucleous test)” value with male ICR mice is “negative”. Also, the values for the 50% lethal dose (LD50) in the data set “acute oral toxicity” (female) and in “acute oral toxicity” (male) were over 2700 mg/kg and over 3700 mg/kg, respectively. In the data set on rats, the lethal case entry is given as “not observed”. For the same molecule, in [2], the chromosome abnormality test entry is “negative”. Besides, in the data set with salmonella typhimurium, the AMES test entry is on record as “negative”.

The record behind these values is patent US6008356A, “Pharmaceutically available protoberberine salts derivatives, and protoberberine salts derivatives, and protoberberine derivatives and salts thereof” (priority 1998, dated 1999).
